Where no end group is shown, it is not given here.
Tested on: Rat bone marrow stem cells (mesenchymal stem cells)
Experiment: Cell proliferation-promoting activity, WST-8 colorimetry (OD450)
Format: cell-based
Conditions: WST-8, 2 hours; for OD450 day 4: four days from start of incubation; for OD450 day 4 / OD450 day 2: bFGF at 10 ng/mL; for OD450 Start: start of the incubation (day 0), 1×10^3 cells per well; for OD450 day 2: two days from start of incubation
Procedure: The cell proliferation-promoting peptides (Samples 1 to 8) obtained in Example 1 and the peptides composed of only a (A) part sequence (Samples 9 to 11) which had been prepared for comparison were evaluated, respectively, on the cell proliferation-promoting activity. Sample 12 was an experimental control where a commercial bFGF was used as the cell proliferation promoter. Sample 13 was an experimental control where no peptide was added (bFGF was not added, either). The evaluation assay is described in detail below. Each synthesized peptide sample was dissolved in PBS (phosphate buffered saline) to prepare a stock solution having a peptide concentration of 1 mM.
Rat bone marrow stem cells (mesenchymal stem cells) were used as the test cells. In particular, the test stem cells were subcultured in Dulbecco MEM (DMEM: a Gibco product) containing 10% fetal bovine serum (FBS: a Gibco product), 2 mM of L-glutamine, 50 unit/mL of penicillin, and 50 μg/mL of streptomycin. Passage 2 cells were used for the evaluation.
The test stem cells that had been pre-incubated overnight in the DMEM containing 10 ng/mL of bFGF were collected and seeded at 1×10^3 cells per well in a 96-well plate. The amount of the culture medium was […] per well.
Then, the stock solutions containing respective peptides of Samples 1 to 11 were added to some wells, one for each well. For comparison, a commercial bFGF (a PeproTech product) was added at a concentration of 10 ng/mL to some other wells (Sample 12). Similarly, yet some other wells were set up to not to contain any of the sample peptides or bFGF (Sample 13).
After a sample peptide or bFGF was added as described above, the 96-well plate was placed in a CO2 incubator and incubated standing at 37° C. and 5% CO2. Exchange of the culture medium was carried out every other day. The culture medium used for an exchange was the same as the culture medium used initially for the incubation (i.e., for the group containing a sample peptide or bFGF, the same sample peptide or bFGF was added to the exchanged culture medium).
During the course of this incubation assay, water-soluble tetrazolium salt (WST-8) was added to some wells as a staining reagent at the start of the incubation (day 0), when two days had passed from the start (day 2) and when four days had passed from the start (day 4). Incubated for 2 hours after the addition, the cell culture medium with the added staining reagent was collected. The level of cell proliferation was evaluated by colorimetry as optical density measured at 450 nm (OD450) based on reduction of the tetrazolium salt.

Row | Substance | OD450 day 4 | OD450 Start | OD450 day 2
1 | KKRTLRKNDRKKR (KKRTLRKNDRKKR-NH2) [Sample 9, reference compound] | 1.260 | 0.124 | 0.648
2 | KKRTLRKNDRKKR LLGNSSPRTQSPQNC (KKRTLRKNDRKKRLLGNSSPRTQSPQNC-NH2) [Sample 3] | 2.289 | 0.124 | 1.177
3 | KKRTLRKNDRKKR TLKERCLQVVRSLVK (KKRTLRKNDRKKRTLKERCLQVVRSLVK) [Sample 4] | 2.410 | 0.124 | 1.357
4 | Sample 12: experimental control: commercial bFGF (basic fibroblast growth factor, a PeproTech product) at 10 ng/mL | 1.977 | 0.124 | 1.022
5 | TLDGGDIINALCFS KKRTLRKNDRKKR (TLDGGDIINALCFSKKRTLRKNDRKKR-NH2) [Sample 2] | 2.259 | 0.124 | 1.133
6 | TLKERCLQVVRSLVK KKRTLRKNDRKKR (TLKERCLQVVRSLVKKKRTLRKNDRKKR) [Sample 1] | 2.369 | 0.124 | 1.264
7 | WRRQARFK TLKERCLQVVRSLVK (WRRQARFKTLKERCLQVVRSLVK) [Sample 6] | 2.365 | 0.124 | 1.181
8 | WRRQARFK [Sample 11, reference compound] | 1.744 | 0.124 | 0.799
9 | YARAAARQARA (YARAAARQARA-NH2) [Sample 10, reference compound] | 1.737 | 0.124 | 0.770
10 | YARAAARQARA SLQYLCRFVIRQYTR (YARAAARQARASLQYLCRFVIRQYTR-NH2) [Sample 8] | 1.828 | 0.124 | 0.856
11 | YARAAARQARA TLKERCLQVVRSLVK (YARAAARQARATLKERCLQVVRSLVK) [Sample 5] | 1.971 | 0.124 | 0.926
12 | YGRKKRRQRRRTLKERCLQVVRSLVK (YGRKKRRQRRRTLKERCLQVVRSLVK-NH2) [Sample 7] | 2.279 | 0.124 | 1.340

— patent publication US9133437B2, “Cell proliferation-promoting peptide and use thereof” (TOAGOSEI CO. LTD., priority 2009, dated 2015)
